Source: patent US20030055046A1, “Novel pyrido cyclohexenyl phenyl carboxamides tocolytic oxytocin receptor antagonists” (Wyeth, priority 2001, published 2003)
Where a name gives a salt, the structure may show the parent alone.

These molecules were tested against T1, human vasopressin V1a receptor subtype (Homo sapiens, UniProt P37288) (assay: Vasopressin binding in CHO cell membranes expressing human vasopressin V1a subtype receptors). Settings: 100 nM, [3H]Manning ligand.
T1 construct: host or cells: CHO cells, stably transfected (pZeoSV vector for the Thibonnier cells)
Source text: Vasopressin Binding in Chinese Hamster Ovary Cell Membranes Expressing Human Vasopressin V1a Subtype Receptors
Chinese hamster ovary cells (CHO cells) stably transfected with the human vasopressin V1a subtype receptors were either obtained from Biosignal Inc., 1744 rue Williams, Montreal, Quebec, Canada or obtained from M. Thibonnier, Case Western Reserve University School of Medicine, Cleveland, Ohio.
A. Passaging and Amplification of Cells:
CHO cells transfected with the human vasopressin V1a subtype receptors obtained from M. Thibonnier (pZeoSV vector) are allowed to grow to confluency (approx. >90%) in T-150 flasks under sterile conditions, in a cell culture medium consisting of F-12 Nutrient Mixture (HAM) with L-glutamine (Gibco Cat.# 11765-054) containing 15 mM HEPES (Gibco Cat.# 15630-080), 1% antibiotic/antimycotic (add 5 mL 100×, Gibco Cat.# 15240-062 per 500 mL F-12), 250 μg/mL Zeocin (add 1.25 mL of 100 mg/mL Invitrogen R-250-01 per 500 mL F-12) and 10% Fetal Bovine Serum (Qualified, heat inactivated, Gibco Cat.# 16140-063). The medium is removed by aspiration and the cells are washed with 10 mL of Hank's Balanced Salt solution (Gibco Cat.# 14175-095). The salt solution is removed by aspiration and the cells are trypsinized with 5 mL of trypsin-EDTA (0.05% trypsin, 0.53 mM EDTA-4Na, Gibco Cat.# 25300-070) for 1 min. The trypsin is removed by aspiration and the cells dislodged by tapping. Cell Culture medium (eg, 30 mL for 1:30 split) is immediately added and mixed well to inactivate trypsin. 1 mL of detached cells is added to new culture flasks containing fresh cell culture medium (eg, into 25 mL per T-150 flask), and mixed gently. The cells are incubated at 37° C. in 5% CO2. The medium is changed at 3 to 4 days interval (or as appropriate). The cells grow to confluency (approx. >75%-95%) within 7-8 days. All steps are done under sterile conditions.
The cells are washed twice gently with Hank's Balanced Salt solution (e.g,. use 10 mL per T-150 flask). The excess is removed and the cells are bathed for 15-30 min. in an enzyme-free Cell Dissociation Buffer (e.g. use 8 mL Hank's Based, Gibco Cat.# 13150-016 per T-150 flask) until the cells are loosened. The contents are transferred to centrifuge tubes (50 mL) kept an ice bath. All subsequent steps are done at 4° C. The tubes are centrifuged at 300×g for 15 min (1380 rpm on SORVAL, Model RT6000D, using the rotor for 50 mL tubes). The supernatant is discarded and the cells suspended in homogeneizing buffer (10 mM Tris-HCl containing 0.25 M sucrose and 1 mM EDTA, pH 7.4) ensuring that the volume of the buffer is about ten times the volume of the cell pellet. The cells are pooled into a centrifuge tube (50 mL) and homogenized with Polytron at setting 6 for 10 sec. The homogenate is transferred into a Potter-Elvjehm homogenizer and homogenized with 3 strokes. The homogenate is centrifuged at 1500×g for 10 min at 4° C. (3100 rpm using SORVAL, model RT6000D, using the rotor for 50 mL tubes). The pellet is discarded. The supernatant is centrifuged at 100,000×g for 60 min. at 4° C. (Beckman L8-80M ultracentrifuge; spin at 37,500 rpm with rotor type 70 Ti for 50 mL tubes; 38,000 rpm with type […] for 15 mL tubes; or 35,800 rpm with rotor type 45Ti). The supernatant is discarded and the pellet suspended in 3 to 4 mL of Tris buffer (50 mM TRIS-HCl, pH 7.4). The protein content is estimated by the Bradford or Lowry method. The volume of the membrane suspension is adjusted with the membrane buffer (50 mM Tris-HCl containing 0.1% BSA and 0.1 mM PMSF) to give 3.0 mg/mL (or as appropriate) of protein. The membranes are aliquoted and stored at −70° C.
C. Radioligand Binding Assay: […]

T1 sequence (P37288 whole entry): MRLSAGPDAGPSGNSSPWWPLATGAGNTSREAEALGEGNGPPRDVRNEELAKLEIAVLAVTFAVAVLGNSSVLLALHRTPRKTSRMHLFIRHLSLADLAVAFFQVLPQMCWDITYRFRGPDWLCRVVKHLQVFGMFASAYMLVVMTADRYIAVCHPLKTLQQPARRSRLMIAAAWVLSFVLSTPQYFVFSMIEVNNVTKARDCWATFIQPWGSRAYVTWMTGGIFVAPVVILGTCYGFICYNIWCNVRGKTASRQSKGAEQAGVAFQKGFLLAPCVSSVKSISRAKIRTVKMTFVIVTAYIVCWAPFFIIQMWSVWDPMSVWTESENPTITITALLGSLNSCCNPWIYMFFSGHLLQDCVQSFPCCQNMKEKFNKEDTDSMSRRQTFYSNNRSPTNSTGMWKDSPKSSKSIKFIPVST

Row | V1a % inhibition @ 100 nM [%] | Compound
1 | 18 | Cc1cc(C(=O)N2Cc3ccc(C(=O)NCc4ccccn4)n3Cc3ccccc32)ccc1C1=CCCCC1 [Example 5, 10-[4-(1-Cyclohex-1-en-1-yl)-3-methylbenzoyl]-N-(2-pyridinylmethyl)-10,11-dihydro-5H-pyrrolo[2,1-c][1,4]benzodiazepine-3-carboxamide]
2 | 6 | Cc1cc(C(=O)N2Cc3ccc(C(=O)NCc4cccnc4)n3Cc3ccccc32)ccc1C1=CCCCC1 [Example 6, 10-[4-(1-Cyclohex-1-en-1-yl)-3-methylbenzoyl]-N-(3-pyridinylmethyl)-10,11-dihydro-5H-pyrrolo[2,1-c][1 ,4]benzodiazepine-3-carboxamide]
3 | 13 | Cc1cc(C(=O)N2Cc3ccc(C(=O)NCCc4ccccn4)n3Cc3ccccc32)ccc1C1=CCCCC1 [Example 7, 10-[4-(1-Cyclohex-1-en-1-yl)-3-methylbenzoyl]-N-[2-(2-pyridinyl)ethyl]-10,11-pyrrolo[2,1-c][1,4]benzodiazepine-3-carboxamide]
4 | 43 | Cc1cc(C(=O)N2Cc3ccc(C(=O)N(C)CCc4ccccn4)n3Cc3ccccc32)ccc1C1=CCCCC1 [Example 8, 10-[4-(1-Cyclohex-1-en-1-yl)-3-methylbenzoyl]-N-methyl-N-[2-(2-pyridinyl)ethyl]-10,11-dihydro-5H-pyrrolo[2,1-c][1 ,4]benzodiazepine-3-carboxamide]
5 | 5 | Cc1cc(C(=O)N2Cc3ccc(C(=O)N4CCN(c5ccccn5)CC4)n3Cc3ccccc32)ccc1C1=CCCCC1 [Example 9, {10-[4-(1-Cyclohex-1-en-1-yl)-3-methylbenzoyl]-10,11-dihydro-5H-pyrrolo[2,1-c][1,4]benzodiazepin-3-yl}[4-(2-pyridinyl)-1-piperazinyl]methanone]
6 | 13 | Cc1cc(C(=O)N2Cc3ccc(C(=O)NCc4ccncc4)n3Cc3ccccc32)ccc1C1=CCCCC1 [Example 10, 10-[4-(1-Cyclohex-1-en-1-yl)-3-methylbenzoyl]-N-(4-pyridinylmethyl)-10,11-dihydro-5H-pyrrolo[2,1-c][1,4]benzodiazepine-3-carboxamide]
7 | 54 | Cc1cc(C(=O)N2Cc3ccc(C(=O)N(C)Cc4cccnc4)n3Cc3ccccc32)ccc1C1=CCCCC1 [Example 11, 10-[4-(1-Cyclohex-1-en-1-yl)-3-methylbenzoyl]-N-methyl-N-(3-pyridinylmethyl)-10,11-dihydro-5H-pyrrolo[2,1-c][1,4]benzodiazepine-3-carboxamide]
8 | 73 | Cc1cc(C(=O)N2Cc3ccc(C(=O)N4CCN(c5ccncc5)CC4)n3Cc3ccccc32)ccc1C1=CCCCC1 [Example 12, {10-[4-(1-Cyclohex-1-en-1-yl)-3-methylbenzoyl]-10,11-dihydro-5H-pyrrolo[2,1--c][1,4]benzodiazepin-3-yl}[4-(4-pyridinyl)-1-piperazinyl]methanone]
9 | 51 | Cc1cc(C(=O)N2Cc3ccc(C(=O)N(C)CCc4ccncc4)n3Cc3ccccc32)ccc1C1=CCCCC1 [Example 13, 10-[4-(1-Cyclohex-1-en-1-yl)-3-methylbenzoyl]-N-methyl-N-[2-(4-pyridinyl)ethyl]-10,11-dihydro-5H-pyrrolo[2,1-c][1,4]benzodiazepine-3-carboxamide]

Row | Compound | V1a % inhibition @ 100 nM [%]
10 | CC1=C(c2ccc(C(=O)N3Cc4ccc(C(=O)N(C)Cc5cccnc5)n4Cc4ccccc43)cc2C)CCC[C@H]1O [Example 3, 10-[4-((3R)-3-Hydroxy-2-methyl-cyclohex-1-en-1-yl)-3-methyl-benzoyl]-10,11-dihydro-5H-pyrrolo[2,1-c][1,4]benzodiazepine-3-carboxylic acid methyl-pyridin-3-yl methyl-amide] | 41
11 | CC1=C(c2ccc(C(=O)N3Cc4ccc(C(=O)N(C)Cc5cccnc5)n4Cc4ccccc43)cc2C)CCC[C@H]1O.O=C(O)C(O)C(O)C(=O)O [Example 4, 10-[4-((3R)-3-Hydroxy-2-methyl-cyclohex-1-en-1-yl)-3-methyl-benzoyl]-10,11-dihydro-5H-pyrrolo[2,1-c][1,4]benzodiazepine-3-carboxylic acid methyl-pyridin-3-yl methyl-amide L-(+)-tartaric acid salt] | 61

Same assay, conditions: [3H]Manning ligand, value in parentheses

Row | IC50 [nM] | Compound
12 | 1090 | COc1cc(C2=CCCCC2)c(Cl)cc1C(=O)N1Cc2ccc(C(=O)N(C)Cc3cccnc3)n2Cc2ccccc21 [Example 1, 10-(5-Chloro-4-cyclohex-1-en-1-yl-2-me3thoxybenzoyl)-N-methyl-N-(pyridin-3-ylmethyl)-10,11-dihydro-5H-pyrrolo [2,1-c][1,4]benzodiazepine-3-carboxamide]
13 | 1320 | COc1cc(C2=CCCCC2)c(Cl)cc1C(=O)N1Cc2ccc(C(=O)N(C)Cc3cccnc3)n2Cc2ccccc21 [Example 2, 10-(5-Chloro-4-cyclohex-1-en-1-yl-2-methoxybenzoyl)-N-methyl-N-(pyridin-3-ylmethyl)-10,11-dihydro-5H-pyrrolo[2,1-c][1,4]benzodiazepine-3-carboxamide L-(+)-tartaric acid salt hemihydrate]
